Data from patent publication US7534800B2, “7-azaindoles as inhibitors of c-Jun N-terminal kinases for the treatment of neurodegenerative disorders” (Eisai R & D Development Co., Ltd., priority 2002, dated 2009).

Molecular target: JNK3 kinase (Homo sapiens, UniProt P53779)
Assay: JNK3 SPA assay (phosphorylation of GST-c-Jun, [γ-33P] ATP)
Assay type: biochemical
Conditions: 3.33 μM ATP, GST-c-Jun substrate, 30 minutes at room temperature
Procedure: JNK1, JNK27 JNK3—SPA Assay
A typical assay for testing the activity of compounds to inhibit JNK1, JNK2 and JNK3 enzymes is as follows: • 1. Compound is dissolved in DMSO to a convenient concentration and this is diluted in 10% DMSO to a five times concentrate of the desired starting concentration (frequently 1:100). • 2. 10 μl of 500 mM EDTA is added to alternative wells of the Opti-plate row, which will receive kinase reaction plus DMSO. This creates the negative control. • 3. For the JNK2 and JNK3 assay, compounds are prepared in six 2-fold dilutions with water and each concentration is tested in duplicate. For the JNK1 assay compounds are prepared in four 5-fold dilutions with water which are tested in triplicate. Controls are treated identically. • 4. 20 μl per well of each compound concentration is transferred to an Opti-plate, in duplicate. • 5. 30 μl (JNK2/3 SPA) or 50 μl (JNK1 SPA) of substrate solution (25 mM HEPES pH 7.5, 10 mM magnesium acetate with 3.33 μm ATP (JNK2/3) or 2 μM ATP (JNK1), approximately 7.5 kBq [γ-33P] ATP, GST-c-Jun, in water) is added to each well. • 6. 50 μl (JNK2/3 SPA) or 30 μl (JNK1 SPA) of kinase solution (JNK in 25 mM HEPES pH 7.5, 10 mM Mg Acetate) is added to each well.
• 7. The plate is incubated for 30 minutes at room temperature. • 8. 100 μl of bead/stop solution is added to each well (5 mg/ml glutathione-PVT-SPA beads, 40 µM ATP in PBS). • 9. Plates are sealed and incubated for 30 minutes at room temperature, centrifuged for 10 minutes at 2500 g and counted. • 10. The IC50 values are calculated as the concentration of the compound being tested at which the phosphorylation of c-Jun is decreased to 50% of the control value.

Sequence of JNK3 kinase (P53779 whole entry): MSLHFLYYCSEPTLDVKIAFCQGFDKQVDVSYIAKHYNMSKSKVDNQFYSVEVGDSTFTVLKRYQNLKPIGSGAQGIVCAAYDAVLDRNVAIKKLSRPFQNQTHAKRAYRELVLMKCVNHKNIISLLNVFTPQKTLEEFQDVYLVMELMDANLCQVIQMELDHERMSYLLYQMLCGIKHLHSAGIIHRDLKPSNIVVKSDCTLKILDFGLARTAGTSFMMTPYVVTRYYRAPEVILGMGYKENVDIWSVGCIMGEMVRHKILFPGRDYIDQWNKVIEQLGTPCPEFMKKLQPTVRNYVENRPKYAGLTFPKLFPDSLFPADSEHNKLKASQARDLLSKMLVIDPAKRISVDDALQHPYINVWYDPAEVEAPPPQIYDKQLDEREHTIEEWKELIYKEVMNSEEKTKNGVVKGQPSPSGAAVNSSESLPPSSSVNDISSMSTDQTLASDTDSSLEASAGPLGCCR

IC50 [µM]	Compound
0.78	O=C(NNc1ccccc1)c1c[nH]c2ncc(-c3cccc(F)c3)cc12
0.85	C#CCNC(=O)c1c[nH]c2ncc(-c3cccc(F)c3)cc12
0.52	C#CCNC(=O)c1c[nH]c2ncc(-c3ccc(N(C)C)cc3)cc12
